According to patent publication US20260159482A1, “CRYSTAL FORM AND AMORPHOUS FORM OF CAREBASTINE P-TOLUENESULFONATE” (priority 2023, published 2026):
Structures can show the parent of a compound that is named as a salt. Where two headings read alike, the source gives them in different places.

Legend:
[1] = for AUC0-t / Cmax / T1/2 / Tmax / increase in AUC0-t compared with Comparative Example 1 / increase in AUC0-t compared with Comparative Example 2 / increase in Cmax compared with Comparative Example 1 / increase in Cmax compared with Comparative Example 2: male; for AUC0-t / Cmax / T1/2 / Tmax / Tmax compared with Comparative Example 2 / half-life (T1/2) compared with Comparative Example 2 / increase in AUC0-t compared with Comparative Example 1 / increase in AUC0-t compared with Comparative Example 2 / increase in Cmax compared with Comparative Example 1 / increase in Cmax compared with Comparative Example 2: dog, in vivo; for AUC0-t / Cmax / T1/2 / Tmax: po, 2.23 mg; for half-life (T1/2) compared with Comparative Example 1 / peak time (Tmax) compared with Comparative Example 1: vs ebastine
Experimental: Ebastine (Comparative Example 1), carebastine (Comparative Example 2), a crystal form of carebastine p-toluenesulfonate (Example 2) and an amorphous form of carebastine p-toluenesulfonate (Example X) were prepared into enteric capsules, respectively.
• Species: Beagle; • Level: normal level; • Animal number and gender: 8 males; • Age: […] old during grouping; • Body weight: the weight during grouping ranged from 8.90 to 10.3 kg, with an average of 10.0 kg.
Dose: in terms of carebastine, each group was dosed at equimolar dose, and appropriate amounts of compounds were weighed and filled into capsules. That is, the drug of carebastine in each capsule is 2.23 mg.
After the test compounds were filled into capsules, 2×4 crossover tests were carried out according to the table above. A 7-day elution period was counted from the start of administration. The corresponding test compounds were administered to each group in different test cycles.
All animals were fasted overnight (for 12 h or more) before each administration, and feeding was resumed 4 h after the administration. The animals had free access to drinking water.
Blood samples were collected at 0 h before administration, and at 10 min, 20 min, 30 min, 45 min, 1 h, 2 h, 3 h, 5 h, 6 h, 8 h, 10 h and 24 h after administration, for a total of 13 blood collection time points.
Approximately 2 mL of blood was collected from a forelimb vein at the set blood collection time points and placed in an EDTA-K2 anticoagulation tube. Whole blood samples were kept at room temperature for 1.5 h after the collection and then centrifuged (at 3000 g centrifugal force, 4° C.) for 10 min.
The concentration of carebastine in plasma was determined using liquid chromatography-mass spectrometry-mass spectrometry (HPLC-MS/MS).
The pharmacokinetic parameters of each group were calculated using the non-compartmental model with the WinNonlin software (version 8.3 or higher).

[2] = Stability study: influencing factors (high temperature, high humidity, light exposure), HPLC content; assay type: physicochemical; settings: for Content, 0 day: HPLC external standard; for Content, High humidity, 30 days: high humidity (RH80%); for Content, High temperature, 30 days: high temperature (60° C.); for Content, Light exposure, 30 days: light exposure (5000 Lux)
Experimental: 3 parts of each of the samples, carebastine (Comparative Example 2), the crystal form of carebastine p-toluenesulfonate (Example 2), and the amorphous form of carebastine p-toluenesulfonate (Example X), were weighed and placed in a weighing bottle, respectively, and each group of samples was placed under conditions of high temperature (60° C.), high humidity (RH80%) and light exposure (5000 Lux). Then, the samples were taken for detection after 30 days.
Detection method: An appropriate amount of each sample was taken, weighed precisely, dissolved with acetonitrile and quantitatively diluted into a solution containing about 0.08 mg of sample per 1 ml. High performance liquid chromatography (HPLC) was used, with octadecylsilane-bonded silica gel as filler, water-acetonitrile (1:1) as mobile phase, a detection wavelength of 256 nm, a column temperature of 35° C. and an injection volume of 10 μl. Each sample solution was injected into the liquid chromatograph instrument, and the chromatograms were recorded. The content of carebastine was calculated by an external standard method, and the impurity content was calculated by a peak area normalization method.

[3] = Hygroscopicity study (weight gain at 25° C., RH 80%, 24 h); assay type: physicochemical
Experimental: • (1) The day prior to the test, a dry glass weighing bottle (with an outer diameter of 50 mm and a height of 15 mm) with a lid was placed in a suitable constant temperature dryer (the lower part of which holds a saturated solution of ammonium chloride or ammonium sulphate) at 25° C.±1° C. or an artificial climate chamber (at a temperature of 25° C.±1° C. and a relative humidity of 80%±2%), and the weight (m1) of the bottle with the lid was precisely weighed. • (2) An appropriate amount of the sample to be tested was evenly laid in the weighing bottle, with a thickness of generally about 1 mm, and the weight (m2) of the bottle with the lid was precisely weighed. • (3) The weighing bottle was kept open and placed together with the lid under constant temperature and humidity for 24 h. • (4) The weighing bottle was covered with the lid, and the weight (m3) was precisely weighed. • (5) Percentage of weight gain=(m3−m2)/(m2−m1)×100%.

SMILES | AUC0-t ([1]; beagle) [ng·h/mL] | Cmax ([1]; beagle) [ng/mL] | T1/2 ([1]; beagle) [h] | Tmax ([1]; beagle) [h] | Content, 0 day [2] [%] | Content, High humidity, 30 days ([2]; 30 days) [%] | Content, High temperature, 30 days ([2]; 30 days) [%] | Content, Light exposure, 30 days ([2]; 30 days) [%] | Percentage of weight gain (%) [3] [%] | half-life (T1/2) compared with Comparative Example 1 ([1]; beagle) | peak time (Tmax) compared with Comparative Example 1 ([1]; beagle) | Tmax compared with Comparative Example 2 [1] | half-life (T1/2) compared with Comparative Example 2 [1] | increase in AUC0-t compared with Comparative Example 1 ([1]; beagle) | increase in AUC0-t compared with Comparative Example 2 ([1]; beagle) | increase in Cmax compared with Comparative Example 1 ([1]; beagle) | increase in Cmax compared with Comparative Example 2 ([1]; beagle) | other results
CC(C)(C)c1ccc(C(=O)CCCN2CCC(OC(c3ccccc3)c3ccccc3)CC2)cc1 [Comparative Example 1, ebastine] | 749 ± 127 | 179 ± 85.7 | 4.06 ± 1.19 | 2.25 ± 0.7 | – | – | – | – | – | – | – | – | – | – | – | – | – | –
CC(C)(C(=O)O)c1ccc(C(=O)CCCN2CCC(OC(c3ccccc3)c3ccccc3)CC2)cc1 [Comparative Example 2, 2-(4-(4-(4-(diphenylmethoxy)piperidine-1-yl)butyryl)phenyl)-2-methylpropanoic acid, reference compound] | 840 ± 161 | 191 ± 51.4 | 3.74 ± 2.02 | 0.82 ± 0.52 | 99.18 | 98.11 | 98.12 | 87.28 | 6 | – | – | – | – | – | – | – | – | content decrease under high temperature and high humidity ([2]; 30 days, high temperature and high humidity): more than 1.0%; content decrease under light exposure ([2]; 30 days, light exposure): more than 10%; content of the maximum single impurity ([2]; after 30 days of influencing factor tests, peak area normalization): more than 0.5%
CC(C)(C(=O)O)c1ccc(C(=O)CCCN2CCC(OC(c3ccccc3)c3ccccc3)CC2)cc1 [Comparative Example 3, carebastine hydrochloride, reference compound] | – | – | – | – | – | – | – | – | – | – | – | – | – | – | – | – | – | Percentage of weight gain (%) ([3]; hydrochloride): 15.9%
CC(C)(C(=O)O)c1ccc(C(=O)CCCN2CCC(OC(c3ccccc3)c3ccccc3)CC2)cc1.Cc1ccc(S(=O)(=O)O)cc1 [Example 2, carebastine p-toluenesulfonate] | – | – | – | – | 99.42 | 99.42 | 99.43 | 99.39 | −0.1 | prolonged | significantly shorter | essentially the same | prolonged | about 55% | about 38% | about 65% | about 55% | Cmax and AUC0-t compared with Example X ([1]; beagle, vs amorphous form): slightly higher; T1/2 compared with Example X ([1]; beagle, vs amorphous form): slightly longer
CC(C)(C(=O)O)c1ccc(C(=O)CCCN2CCC(OC(c3ccccc3)c3ccccc3)CC2)cc1.Cc1ccc(S(=O)(=O)O)cc1 [Example X, carebastine p-toluenesulfonate] | – | – | – | – | 98.59 | 98.58 | 98.54 | 98.51 | 0.3 | prolonged | significantly shorter | essentially the same | prolonged | ~31% | ~17% | ~46% | ~37% | –
